Reference: article PMC5218480 (PLoS ONE, 2017)

Test system: MV-4-11 cells
Experiment: Gene expression microarray analysis (Affymetrix PrimeView) and GSEA
Type: cell-based, human
Parameters: RFU PODN (11730768_x_at) / Fold change /veh PODN (11730768_x_at) / RFU LINC00158 (11744669_a_at) / Fold change /veh LINC00158 (11744669_a_at) / RFU DUSP10 (11751237_a_at) / Fold change /veh DUSP10 (11751237_a_at) / RFU ID3 (11757404_x_at) / Fold change /veh ID3 (11757404_x_at) / RFU PLEKHG5 (11737974_s_at) / Fold change /veh PLEKHG5 (11737974_s_at) / RFU LRRC4B (11730491_at) / Fold change /veh LRRC4B (11730491_at) / RFU GIMAP4 (11747438_a_at) / Fold change /veh GIMAP4 (11747438_a_at) / RFU KRT8 (11758183_x_at) / Fold change /veh KRT8 (11758183_x_at) / RFU CNN1 (11734310_a_at) / Fold change /veh CNN1 (11734310_a_at) / RFU VPS37D (11726825_at) / Fold change /veh VPS37D (11726825_at) / RFU C10orf10 (11716522_x_at) / Fold change /veh C10orf10 (11716522_x_at) / RFU KIR2DL2 /// KIR2DL4 /// KIR2DL5A /// KIR2DL5B /// KIR2DS1 /// KIR2DS2 /// KIR2DS3 /// KIR2DS4 /// KIR3DL3 /// KIR3DL3 /// KIR3DS1 (11738374_at) / Fold change /veh KIR2DL2 /// KIR2DL4 /// KIR2DL5A /// KIR2DL5B /// KIR2DS1 /// KIR2DS2 /// KIR2DS3 /// KIR2DS4 /// KIR3DL3 /// KIR3DL3 /// KIR3DS1 (11738374_at) / RFU C1QL1 (11718748_at) / Fold change /veh C1QL1 (11718748_at) / RFU TMPRSS4 (11747572_a_at) / Fold change /veh TMPRSS4 (11747572_a_at) / RFU HAMP (11756126_x_at) / Fold change /veh HAMP (11756126_x_at) / RFU RNFT2 (11725882_a_at) / Fold change /veh RNFT2 (11725882_a_at) / RFU NR4A2 (11747474_a_at) / Fold change /veh NR4A2 (11747474_a_at) / RFU ABCC12 (11746883_a_at) / Fold change /veh ABCC12 (11746883_a_at) / RFU TMEM136 (11760407_x_at) / Fold change /veh TMEM136 (11760407_x_at) / RFU CLDN22 /// WWC2 (11732394_at) / Fold change /veh CLDN22 /// WWC2 (11732394_at) / RFU HLA-DPB1 (11760878_x_at) / Fold change /veh HLA-DPB1 (11760878_x_at) / RFU SPINT1 (11716480_a_at) / Fold change /veh SPINT1 (11716480_a_at) / RFU GAP43 (11754022_s_at) / Fold change /veh GAP43 (11754022_s_at) / RFU A4GNT (11735810_at) / Fold change /veh A4GNT (11735810_at) / RFU PRB3 (11715151_x_at) / Fold change /veh PRB3 (11715151_x_at) / RFU TUBB4B (11761932_at) / Fold change /veh TUBB4B (11761932_at) / RFU CAPN14 (11732068_a_at) / Fold change /veh CAPN14 (11732068_a_at) / RFU TMCC2 (11721928_a_at) / Fold change /veh TMCC2 (11721928_a_at) / RFU IRGQ (11745062_a_at) / Fold change /veh IRGQ (11745062_a_at) / RFU FAM174B (11720279_a_at) / Fold change /veh FAM174B (11720279_a_at) / RFU TMPRSS4 (11748680_a_at) / Fold change /veh TMPRSS4 (11748680_a_at) / RFU FAM212B (11763350_a_at) / Fold change /veh FAM212B (11763350_a_at) / RFU PLEKHG5 (11743358_a_at) / Fold change /veh PLEKHG5 (11743358_a_at) / RFU ZSCAN30 (11745921_a_at) / Fold change /veh ZSCAN30 (11745921_a_at) / RFU CMKLR1 (11741424_a_at) / Fold change /veh CMKLR1 (11741424_a_at) / RFU LOC101060620 /// MAPK8IP1 (11723275_at) / Fold change /veh LOC101060620 /// MAPK8IP1 (11723275_at) / RFU SPTSSB (11747773_x_at) / Fold change /veh SPTSSB (11747773_x_at) / RFU PRSS12 (11739890_at) / Fold change /veh PRSS12 (11739890_at) / RFU BIN1 (11741810_x_at) / Fold change /veh BIN1 (11741810_x_at) / RFU WNT11 (11732464_a_at) / Fold change /veh WNT11 (11732464_a_at) / RFU C10orf10 (11716521_a_at) / Fold change /veh C10orf10 (11716521_a_at) / RFU C5orf56 (11738089_at) / Fold change /veh C5orf56 (11738089_at) / RFU CYB561 (11721691_x_at) / Fold change /veh CYB561 (11721691_x_at) / RFU ANKRD19P (11752326_a_at) / Fold change /veh ANKRD19P (11752326_a_at) / RFU OR2T12 /// OR2T33 /// OR2T8 (11738714_s_at) / Fold change /veh OR2T12 /// OR2T33 /// OR2T8 (11738714_s_at) / RFU VCAN (11748164_a_at) / Fold change /veh VCAN (11748164_a_at) / RFU JSRP1 (11732532_at) / Fold change /veh JSRP1 (11732532_at) / RFU KRTAP10-11 (11738290_x_at) / Fold change /veh KRTAP10-11 (11738290_x_at) / RFU MYO3A (11730013_a_at) / Fold change /veh MYO3A (11730013_a_at) / RFU EBF3 (11725865_a_at) / Fold change /veh EBF3 (11725865_a_at) / RFU CAMK2N1 (11719241_x_at) / Fold change /veh CAMK2N1 (11719241_x_at) / RFU C5orf56 (11738088_a_at) / Fold change /veh C5orf56 (11738088_a_at) / RFU OLFML3 (11715873_a_at) / Fold change /veh OLFML3 (11715873_a_at) / RFU LOC100653217 /// NTM (11731650_a_at) / Fold change /veh LOC100653217 /// NTM (11731650_a_at) / RFU MAPK11 (11762145_a_at) / Fold change /veh MAPK11 (11762145_a_at) / RFU FIZ1 (11724087_x_at) / Fold change /veh FIZ1 (11724087_x_at) / RFU OASL (11726364_x_at) / Fold change /veh OASL (11726364_x_at) / RFU SOX15 (11748057_x_at) / Fold change /veh SOX15 (11748057_x_at) / RFU CD79A (11719716_a_at) / Fold change /veh CD79A (11719716_a_at) / RFU HIST1H1D (11736915_at) / Fold change /veh HIST1H1D (11736915_at) / RFU CASKIN2 (11723855_a_at) / Fold change /veh CASKIN2 (11723855_a_at) / RFU LOC730098 (11760151_x_at) / Fold change /veh LOC730098 (11760151_x_at) / RFU OR4N2 (11742367_at) / Fold change /veh OR4N2 (11742367_at) / RFU PRRT2 (11749266_a_at) / Fold change /veh PRRT2 (11749266_a_at) / RFU SNX32 (11753110_a_at) / Fold change /veh SNX32 (11753110_a_at) / RFU CDHR5 (11726645_a_at) / Fold change /veh CDHR5 (11726645_a_at) / RFU RCAN1 (11760418_a_at) / Fold change /veh RCAN1 (11760418_a_at) / RFU FAM167A (11723789_a_at) / Fold change /veh FAM167A (11723789_a_at) / RFU FAM26E (11764081_at) / Fold change /veh FAM26E (11764081_at) / RFU ISYNA1 (11749810_s_at) / Fold change /veh ISYNA1 (11749810_s_at) / RFU ACY1 (11761880_at) / Fold change /veh ACY1 (11761880_at) / RFU 11764098_at / Fold change /veh 11764098_at / RFU SAMD14 (11745864_x_at) / Fold change /veh SAMD14 (11745864_x_at) / RFU NPB (11741838_a_at) / Fold change /veh NPB (11741838_a_at) / RFU TMPRSS6 (11731388_a_at) / Fold change /veh TMPRSS6 (11731388_a_at) / RFU KRTAP10-2 (11738614_at) / Fold change /veh KRTAP10-2 (11738614_at) / RFU ARHGAP8 /// PRR5-ARHGAP8 (11727945_x_at) / Fold change /veh ARHGAP8 /// PRR5-ARHGAP8 (11727945_x_at) / RFU KRTAP5-7 /// NADSYN1 (11734609_at) / Fold change /veh KRTAP5-7 /// NADSYN1 (11734609_at) / RFU RASL12 (11751679_a_at) / Fold change /veh RASL12 (11751679_a_at) / RFU CDKN2B (11736163_a_at) / Fold change /veh CDKN2B (11736163_a_at) / RFU PRF1 (11729649_at) / Fold change /veh PRF1 (11729649_at) / RFU, ZNF638 /// ZNF638-IT1 / Fold change vs veh, ZNF638 /// ZNF638-IT1 / RFU, PANK3 / Fold change vs veh, PANK3 / RFU, SH3YL1 / Fold change vs veh, SH3YL1 / RFU, ZEB2 / Fold change vs veh, ZEB2 / RFU, NRIP1 / Fold change vs veh, NRIP1 / RFU, PTTG1IP / Fold change vs veh, PTTG1IP / RFU, CAPN2 / Fold change vs veh, CAPN2 / RFU, MED14 / Fold change vs veh, MED14 / RFU, SNORA58 / Fold change vs veh, SNORA58 / RFU, C1orf63 / Fold change vs veh, C1orf63 / RFU, LRRFIP1 / Fold change vs veh, LRRFIP1 / RFU, NDUFAF7 / Fold change vs veh, NDUFAF7 / RFU, SLC12A2 / Fold change vs veh, SLC12A2 / RFU, IBTK / Fold change vs veh, IBTK / RFU, ESF1 / Fold change vs veh, ESF1 / Fold change vs veh, TMEM50B / RFU, TAOK1 / Fold change vs veh, TAOK1 / RFU, ACBD3 / Fold change vs veh, ACBD3 / RFU, TMA16 / Fold change vs veh, TMA16 / RFU, RWDD3 / Fold change vs veh, RWDD3 / RFU, BCAT1 / Fold change vs veh, BCAT1 / RFU, EDEM3 / Fold change vs veh, EDEM3 / RFU, TMEM33 / Fold change vs veh, TMEM33 / RFU, WDR75 / Fold change vs veh, WDR75 / RFU, AHCTF1 / Fold change vs veh, AHCTF1 / RFU, TFRC / Fold change vs veh, TFRC / RFU, ZDHHC17 / Fold change vs veh, ZDHHC17 / RFU, NOM1 / Fold change vs veh, NOM1 / RFU, ARL8B / Fold change vs veh, ARL8B / RFU, ZBTB11 / Fold change vs veh, ZBTB11 / RFU, TAMM41 / Fold change vs veh, TAMM41 / RFU, KIAA1704 /// LOC100996395 / Fold change vs veh, KIAA1704 /// LOC100996395 / RFU, ING1 / Fold change vs veh, ING1 / RFU, TRMT61B / Fold change vs veh, TRMT61B / RFU, FUBP3 / Fold change vs veh, FUBP3 / RFU, TP53 / Fold change vs veh, TP53 / RFU, TNKS2 / Fold change vs veh, TNKS2 / RFU, ZFP14 / Fold change vs veh, ZFP14 / RFU, ACTR2 / Fold change vs veh, ACTR2 / RFU, PPP3R1 / Fold change vs veh, PPP3R1 / RFU, PIK3R1 / Fold change vs veh, PIK3R1 / RFU, HNRNPA1 / Fold change vs veh, HNRNPA1 / RFU, RNF170 / Fold change vs veh, RNF170 / RFU, ZNF28 / Fold change vs veh, ZNF28 / RFU, RNGTT / Fold change vs veh, RNGTT / RFU, OGT / Fold change vs veh, OGT / RFU, BRD1 / Fold change vs veh, BRD1 / RFU, MARS / Fold change vs veh, MARS / RFU, ZNF655 / Fold change vs veh, ZNF655 / RFU, FAHD1 / Fold change vs veh, FAHD1 / RFU, BDP1 / Fold change vs veh, BDP1 / RFU, LRRCC1 / Fold change vs veh, LRRCC1 / RFU, ARID1A / Fold change vs veh, ARID1A / RFU, ZNF146 / Fold change vs veh, ZNF146 / RFU, ZNF330 / Fold change vs veh, ZNF330 / RFU, GPN3 / Fold change vs veh, GPN3 / RFU, C9orf123 / Fold change vs veh, C9orf123 / RFU, N4BP2L2 / Fold change vs veh, N4BP2L2 / RFU, ARFIP1 / Fold change vs veh, ARFIP1 / RFU, FAM179B / Fold change vs veh, FAM179B / RFU, BCL10 / Fold change vs veh, BCL10 / RFU, UHRF1BP1L / Fold change vs veh, UHRF1BP1L / RFU, BET1 / Fold change vs veh, BET1 / RFU, CNOT2 / Fold change vs veh, CNOT2 / RFU, ZNF268 / Fold change vs veh, ZNF268 / Fold change vs veh, ZNF507 / RFU, DGCR2 / Fold change vs veh, DGCR2 / RFU, WDSUB1 / Fold change vs veh, WDSUB1 / Fold change vs veh, HSP90B1 /// MIR3652 / RFU, ADSS / Fold change vs veh, ADSS / RFU, GK / Fold change vs veh, GK / RFU, ZNF148 / Fold change vs veh, ZNF148 / RFU, TAF9 / Fold change vs veh, TAF9 / RFU, SLC1A5 / Fold change vs veh, SLC1A5 / RFU, SLMO2 / Fold change vs veh, SLMO2 / RFU, ABCC4 / Fold change vs veh, ABCC4 / RFU, LOC101060439 /// RAP1B / Fold change vs veh, LOC101060439 /// RAP1B / RFU, RFX7 / Fold change vs veh, RFX7 / RFU, GTPBP10 / Fold change vs veh, GTPBP10 / RFU, CNEP1R1 / Fold change vs veh, CNEP1R1 / RFU, BIVM-ERCC5 /// ERCC5 / Fold change vs veh, BIVM-ERCC5 /// ERCC5 / RFU, ILF3 / Fold change vs veh, ILF3 / RFU 11762660_at / Fold change /veh 11762660_at / RFU VCAN (11757783_s_at) / Fold change /veh VCAN (11757783_s_at) / RFU DDX43 (11728927_at) / Fold change /veh DDX43 (11728927_at) / RFU KRT8 (11758188_x_at) / Fold change /veh KRT8 (11758188_x_at) / RFU NKD1 (11759106_at) / Fold change /veh NKD1 (11759106_at) / RFU SRD5A1 (11742802_a_at) / Fold change /veh SRD5A1 (11742802_a_at) / RFU TPSAB1 /// TPSB2 (11721975_s_at) / Fold change /veh TPSAB1 /// TPSB2 (11721975_s_at) / RFU GSTM3 (11746129_a_at) / Fold change /veh GSTM3 (11746129_a_at) / RFU IL23R (11737362_x_at) / Fold change /veh IL23R (11737362_x_at) / RFU TMEM51 (11727254_a_at) / Fold change /veh TMEM51 (11727254_a_at) / RFU PIWIL2 (11732686_x_at) / Fold change /veh PIWIL2 (11732686_x_at) / RFU ORM1 (11744905_x_at) / Fold change /veh ORM1 (11744905_x_at) / RFU CCDC152 (11743942_at) / Fold change /veh CCDC152 (11743942_at) / RFU ECM1 (11717891_a_at) / Fold change /veh ECM1 (11717891_a_at) / RFU IL23R (11748794_a_at) / Fold change /veh IL23R (11748794_a_at) / RFU TNFAIP8L3 (11732012_x_at) / Fold change /veh TNFAIP8L3 (11732012_x_at) / RFU MBOAT4 (11741988_at) / Fold change /veh MBOAT4 (11741988_at) / RFU 11764193_at / Fold change /veh 11764193_at / RFU TMEM53 (11763286_at) / Fold change /veh TMEM53 (11763286_at) / RFU MAGEB2 (11727129_at) / Fold change /veh MAGEB2 (11727129_at) / RFU TMEM200A (11744735_a_at) / Fold change /veh TMEM200A (11744735_a_at) / RFU CCDC152 (11751479_a_at) / Fold change /veh CCDC152 (11751479_a_at) / RFU FAM211A (11726209_a_at) / Fold change /veh FAM211A (11726209_a_at) / RFU RGS16 (11746705_a_at) / Fold change /veh RGS16 (11746705_a_at) / RFU VCAN (11755009_s_at) / Fold change /veh VCAN (11755009_s_at) / RFU RHOB (11743442_s_at) / Fold change /veh RHOB (11743442_s_at) / RFU RGS16 (11720943_a_at) / Fold change /veh RGS16 (11720943_a_at) / RFU RGS16 (11720944_at) / Fold change /veh RGS16 (11720944_at) / RFU, VPS4B / Fold change vs veh, VPS4B / RFU, CREB1 / Fold change vs veh, CREB1 / RFU, DNAJC13 / Fold change vs veh, DNAJC13 / RFU, GNAQ / Fold change vs veh, GNAQ / RFU, CDK5R1 / Fold change vs veh, CDK5R1 / RFU, ZRANB3 / Fold change vs veh, ZRANB3 / RFU, CUL4A / Fold change vs veh, CUL4A / RFU, CCNY / Fold change vs veh, CCNY / RFU, UFL1 / Fold change vs veh, UFL1 / RFU, COG3 / Fold change vs veh, COG3 / RFU, DIAPH2 / Fold change vs veh, DIAPH2 / RFU, SKA2 / Fold change vs veh, SKA2 / RFU, AFF3 / Fold change vs veh, AFF3 / RFU, LMF1 / Fold change vs veh, LMF1 / RFU, IPO11 / Fold change vs veh, IPO11 / RFU, DFFB / Fold change vs veh, DFFB / RFU, FOXP1 / Fold change vs veh, FOXP1 / RFU, CARD8 / Fold change vs veh, CARD8 / RFU, STRN3 / Fold change vs veh, STRN3 / RFU, ADK / Fold change vs veh, ADK / RFU, RASSF2 / Fold change vs veh, RASSF2 / RFU, WIPF1 / Fold change vs veh, WIPF1 / RFU, LARP1B / Fold change vs veh, LARP1B / RFU, RASA1 / Fold change vs veh, RASA1 / RFU, RB1 / Fold change vs veh, RB1 / RFU, PPFIA1 / Fold change vs veh, PPFIA1 / RFU, MAT2A / Fold change vs veh, MAT2A / RFU, CCT5 / Fold change vs veh, CCT5 / RFU, WDR92 / Fold change vs veh, WDR92 / RFU, CUX1 / Fold change vs veh, CUX1 / RFU, TTC7A / Fold change vs veh, TTC7A / RFU, TMEM135 / Fold change vs veh, TMEM135 / RFU, DEPTOR / Fold change vs veh, DEPTOR / RFU, CPM / Fold change vs veh, CPM / RFU, DNAJB6 / Fold change vs veh, DNAJB6 / RFU, CACNA2D3 / Fold change vs veh, CACNA2D3 / RFU, DTX4 / Fold change vs veh, DTX4 / RFU, TFCP2 / Fold change vs veh, TFCP2 / RFU, GMCL1 /// GMCL1P1 / Fold change vs veh, GMCL1 /// GMCL1P1 / RFU, AEBP2 / Fold change vs veh, AEBP2 / RFU, SNHG1 /// SNORD22 /// SNORD25 /// SNORD26 /// SNORD27 /// SNORD28 /// SNORD29 /// SNORD31 / Fold change vs veh, SNHG1 /// SNORD22 /// SNORD25 /// SNORD26 /// SNORD27 /// SNORD28 /// SNORD29 /// SNORD31 / Fold change (Aza/veh), C12orf56 (ProbeSet 11735607_a_at) / Fold change (ACY-1035/veh), C12orf56 (ProbeSet 11735607_a_at) / Fold change (Aza/veh), FGFR1OP (ProbeSet 11751329_s_at) / Fold change (ACY-1035/veh), FGFR1OP (ProbeSet 11751329_s_at) / Fold change (Aza/veh), VPS36 (ProbeSet 11739960_a_at) / Fold change (ACY-1035/veh), VPS36 (ProbeSet 11739960_a_at) / RFU SYPL1 (11715823_x_at) / Fold change /veh SYPL1 (11715823_x_at) / RFU IGFBP7 (11715501_s_at) / Fold change /veh IGFBP7 (11715501_s_at) / RFU REEP3 (11722064_at) / Fold change /veh REEP3 (11722064_at) / RFU IGLL1 (11728026_x_at) / Fold change /veh IGLL1 (11728026_x_at): dose or concentration left out as unconfirmed
Details: ProbeSet 11725141_a_at; LIST B

SMILES: Nc1ccc(-c2cccs2)cc1NC(=O)c1ccc2c(c1)cc(C1CC1)n2CCN1CCOCC1 [ACY-1035]
- Fold change vs veh, FUBP3: 0.87
